# Experimental data reported in PubChem BioAssay AID328 (DTP/NCI, 2004).
# “And” between values parts separate entries of the source, which are not always exact repeats. Identical values can stand only once. Toxic doses and inconclusive results are not listed.
# Test system: BDF1 mice, P388 leukemia ip, median survival T/C
# Test: NCI In Vivo Anticancer Drug Screen. Data for tumor model P388 Leukemia (intraperitoneal) in B6D2F1 (BDF1) mice
# Details: endpoint: median survival time, higher = longer survival
# Procedure, shortened: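 Compound-treated tumour-bearing mice were compared with vehicle-treated controls. Survival was recorded, and the value is the treated-group measurement divided by the control-group measurement (T/C).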
# [1] = dose: 25.0 mg/kg/injection, schedule: Q04DX003 (ip), vehicle: saline
# [2] = dose: 50.0 mg/kg/injection, schedule: Q04DX003 (ip), vehicle: saline
# [3] = dose: 100.0 mg/kg/injection, schedule: Q04DX003 (ip), vehicle: saline
# [4] = dose: 50.0 mg/kg/injection, schedule: Q01DX009 (ip), vehicle: saline with Tween-80
# [5] = dose: 100.0 mg/kg/injection, schedule: Q01DX009 (ip), vehicle: saline with Tween-80
# [6] = dose: 200.0 mg/kg/injection, schedule: Q01DX009 (ip), vehicle: saline with Tween-80
# [7] = dose: 25.0 mg/kg/injection, schedule: Q01DX009 (ip), vehicle: saline with Tween-80
# [8] = dose: 50.0 mg/kg/injection, schedule: Q04DX003 (ip), vehicle: saline with Tween-80
# [9] = dose: 100.0 mg/kg/injection, schedule: Q04DX003 (ip), vehicle: saline with Tween-80
# [10] = dose: 12.5 mg/kg/injection, schedule: Q01DX009 (ip), vehicle: saline
# [11] = dose: 25.0 mg/kg/injection, schedule: Q01DX009 (ip), vehicle: saline
# [12] = dose: 200.0 mg/kg/injection, schedule: Q04DX003 (ip), vehicle: saline with Tween-80
# [13] = dose: 400.0 mg/kg/injection, schedule: Q04DX003 (ip), vehicle: saline with Tween-80
compound,measurement,setting,value
CC(=O)Nc1ccc(S(=O)(=O)N2CC2)cc1,T/C,"dose: 25.0 mg/kg/injection, schedule: Q01DX005 (ip), vehicle: saline",98 % of control
same,T/C,"dose: 50.0 mg/kg/injection, schedule: Q01DX005 (ip), vehicle: saline",111 % of control
same,T/C,"dose: 100.0 mg/kg/injection, schedule: Q01DX005 (ip), vehicle: saline",98 % of control
same,T/C,"dose: 200.0 mg/kg/injection, schedule: Q01DX005 (ip), vehicle: saline",111 % of control
CCOC(=O)c1nc(NC)sc1N,T/C,[1],97 % of control
same,T/C,[2],100 % of control
same,T/C,[3],105 % of control
same,T/C,"dose: 200.0 mg/kg/injection, schedule: Q04DX003 (ip), vehicle: saline",96 % of control
Cc1c2c(cc3c1[nH]c1ccccc13)C=NCC2,T/C,[4],93 % of control
same,T/C,[5],99 % of control
same,T/C,[6],101 % of control
NNc1ncnc2c1ccn2C1OC(CO)C(O)C1O (stereo unspecified),T/C,[7],150 % of control
same,T/C,"dose: 25.0 mg/kg/injection, schedule: Q04DX003 (ip), vehicle: saline with Tween-80",104 % of control
same,T/C,"dose: 37.5 mg/kg/injection, schedule: Q01DX009 (ip), vehicle: saline with Tween-80",155 % of control
same,T/C,[4],100 % of control
same,T/C,[8],108 % of control
same,T/C,[9],108 % of control
CCOC(=O)Nc1cc2c(c(N)n1)N=C(CN(C)c1ccccc1)CN2,T/C,"dose: 12.5 mg/kg/injection, schedule: Q01DX001 (ip), vehicle: Klucel (hydroxypropylcellulose) (HPC)",123 % of control
same,T/C,"dose: 50.0 mg/kg/injection, schedule: Q01DX001 (ip), vehicle: Klucel (hydroxypropylcellulose) (HPC)",164 % of control
same,T/C,"dose: 100.0 mg/kg/injection, schedule: Q01DX001 (ip), vehicle: Klucel (hydroxypropylcellulose) (HPC)",211 % of control
C[C@]12CC[C@H](O)C[C@@]1(O)CC[C@@H]1[C@@H]2CC[C@]2(C)[C@@H](c3ccc(=O)oc3)CC[C@]12O,T/C,"dose: 1.25 mg/kg/injection, schedule: Q01DX009 (ip), vehicle: Klucel (hydroxypropylcellulose) (HPC)",93 % of control
same,T/C,"dose: 2.5 mg/kg/injection, schedule: Q01DX009 (ip), vehicle: Klucel (hydroxypropylcellulose) (HPC)",94 % of control
same,T/C,"dose: 5.0 mg/kg/injection, schedule: Q01DX009 (ip), vehicle: Klucel (hydroxypropylcellulose) (HPC)",99 % of control
same,T/C,"dose: 6.2 mg/kg/injection, schedule: Q01DX010 (ip), vehicle: carboxymethylcellulose (CMC)",105 % of control
same,T/C,"dose: 10.0 mg/kg/injection, schedule: Q01DX009 (ip), vehicle: Klucel (hydroxypropylcellulose) (HPC)",101 % of control
same,T/C,"dose: 12.5 mg/kg/injection, schedule: Q01DX010 (ip), vehicle: carboxymethylcellulose (CMC)",90 % of control
same,T/C,"dose: 20.0 mg/kg/injection, schedule: Q01DX009 (ip), vehicle: Klucel (hydroxypropylcellulose) (HPC)",105 % of control
same,T/C,"dose: 25.0 mg/kg/injection, schedule: Q01DX010 (ip), vehicle: carboxymethylcellulose (CMC)",100 % of control
OCC1OC(n2cnc3c(=S)nc[nH]c32)C(O)C1O (stereo unspecified),T/C,"dose: 20.0 mg/kg/injection, schedule: Q01DX010 (ip), vehicle: saline",90 % of control
same,T/C,"dose: 40.0 mg/kg/injection, schedule: Q01DX010 (ip), vehicle: saline",100 % of control
same,T/C,"dose: 80.0 mg/kg/injection, schedule: Q01DX010 (ip), vehicle: saline",100 % of control
same,T/C,"dose: 160.0 mg/kg/injection, schedule: Q01DX010 (ip), vehicle: saline",95 % of control
COCCOP(=O)(N1CC1)N1CC1,T/C,"dose: 33.0 mg/kg/injection, schedule: Q04DX003 (ip), vehicle: saline",190 % of control
same,T/C,[2],236 % of control
same,T/C,"dose: 75.0 mg/kg/injection, schedule: Q04DX003 (ip), vehicle: saline",272 % of control
same,T/C,[3],118 % of control
[Cl][Ni+2][Cl].[NH-]CCN1CC1,T/C,"dose: 6.25 mg/kg/injection, schedule: Q01DX001 (ip), vehicle: saline",90 % of control
same,T/C,"dose: 12.5 mg/kg/injection, schedule: Q01DX001 (ip), vehicle: saline",100 % of control
same,T/C,"dose: 25.0 mg/kg/injection, schedule: Q01DX001 (ip), vehicle: saline",100 % of control
CC1NCCNCCNCCNC(C)c2cccc1n2 (stereo unspecified),T/C,"dose: 6.25 mg/kg/injection, schedule: Q01DX009 (ip), vehicle: saline",118 % of control
same,T/C,[10],106 % of control
same,T/C,[11],118 % of control
Clc1ncnc2nc[nH]c12,T/C,"dose: 7.5 mg/kg/injection, schedule: Q01DX010 (ip), vehicle: saline",92 % of control and 118 % of control
same,T/C,"dose: 15.0 mg/kg/injection, schedule: Q01DX010 (ip), vehicle: saline",92 % of control and 122 % of control
same,T/C,"dose: 30.0 mg/kg/injection, schedule: Q01DX010 (ip), vehicle: saline",100 % of control
same,T/C,"dose: 60.0 mg/kg/injection, schedule: Q01DX010 (ip), vehicle: saline",100 % of control
O=C(O)CNC(=O)CNC(=O)C(Br)Cc1ccccc1 (stereo unspecified),T/C,[7],95 % of control
same,T/C,"dose: 25.0 mg/kg/injection, schedule: Q04DX003 (ip), vehicle: Klucel (hydroxypropylcellulose) (HPC)",104 % of control
same,T/C,[4],87 % of control
same,T/C,"dose: 50.0 mg/kg/injection, schedule: Q04DX003 (ip), vehicle: Klucel (hydroxypropylcellulose) (HPC)",104 % of control
same,T/C,[5],100 % of control
same,T/C,"dose: 100.0 mg/kg/injection, schedule: Q04DX003 (ip), vehicle: Klucel (hydroxypropylcellulose) (HPC)",91 % of control and 100 % of control
COC(=O)/C=C/c1ccc(Cl)cc1,T/C,"dose: 100.0 mg/kg/injection, schedule: Q01DX009 (ip), vehicle: Klucel (hydroxypropylcellulose) (HPC)",95 % of control
same,T/C,"dose: 200.0 mg/kg/injection, schedule: Q01DX009 (ip), vehicle: Klucel (hydroxypropylcellulose) (HPC)",95 % of control
same,T/C,"dose: 400.0 mg/kg/injection, schedule: Q01DX009 (ip), vehicle: Klucel (hydroxypropylcellulose) (HPC)",91 % of control
CCC[CH2][Sn]([CH2]CCC)([O]C(C)=O)[O]C(C)=O,T/C,"dose: 3.12 mg/kg/injection, schedule: Q01DX009 (ip), vehicle: saline with Tween-80",114 % of control
same,T/C,"dose: 6.12 mg/kg/injection, schedule: Q01DX009 (ip), vehicle: saline",154 % of control
same,T/C,"dose: 6.25 mg/kg/injection, schedule: Q01DX009 (ip), vehicle: saline with Tween-80",151 % of control
same,T/C,"dose: 12.5 mg/kg/injection, schedule: Q01DX009 (ip), vehicle: saline with Tween-80",86 % of control
same,T/C,[10],156 % of control
O=C(c1ccccc1)C(SSC(C(=O)c1ccccc1)C(=O)c1ccccc1)C(=O)c1ccccc1,T/C,[4],100 % of control
same,T/C,[5],112 % of control
same,T/C,[6],103 % of control
CC1(C)Oc2cc3oc(C(=O)O)cc(=O)c3cc2-c2ccc(O)cc21,T/C,"dose: 100.0 mg/kg/injection, schedule: Q04DX002 (ip), vehicle: saline with Tween-80",119 % of control
same,T/C,"dose: 200.0 mg/kg/injection, schedule: Q04DX002 (ip), vehicle: saline with Tween-80",107 % of control
same,T/C,"dose: 400.0 mg/kg/injection, schedule: Q04DX002 (ip), vehicle: saline with Tween-80",108 % of control
COc1cccc(S(=O)c2ccc([N+](=O)[O-])c3no[n+]([O-])c23)c1 (stereo unspecified),T/C,"dose: 15.0 mg/kg/injection, schedule: Q01DX009 (ip), vehicle: saline with Tween-80",112 % of control
CC1=C(C)C(=O)c2c(OC(=O)c3ccccc3)ccc(OC(=O)c3ccccc3)c2C1=O,T/C,"dose: 6.25 mg/kg/injection, schedule: Q04DX003 (ip), vehicle: saline",102 % of control
same,T/C,"dose: 12.5 mg/kg/injection, schedule: Q04DX003 (ip), vehicle: saline",103 % of control
same,T/C,[11],92 % of control
same,T/C,[1],94 % of control
same,T/C,"dose: 50.0 mg/kg/injection, schedule: Q01DX009 (ip), vehicle: saline",101 % of control
same,T/C,[2],99 % of control
same,T/C,"dose: 100.0 mg/kg/injection, schedule: Q01DX009 (ip), vehicle: saline",92 % of control
same,T/C,[3],94 % of control
same,T/C,"dose: 200.0 mg/kg/injection, schedule: Q01DX009 (ip), vehicle: saline",91 % of control
same,T/C,"dose: 400.0 mg/kg/injection, schedule: Q01DX009 (ip), vehicle: saline",89 % of control
CCC(=O)O[C@H]1CC[C@H]2[C@@H]3C[C@H](F)C4=CC(=O)CC[C@]4(C)[C@H]3CC[C@]12C,T/C,[9],95 % of control
same,T/C,[12],95 % of control
same,T/C,"dose: 400.0 mg/kg/injection, schedule: Q01DX009 (ip), vehicle: saline sonified",109 % of control
same,T/C,[13],109 % of control
CCCCNCCC(SS)c1ccc(Cl)cc1 (stereo unspecified),T/C,[8],104 % of control
same,T/C,[9],100 % of control
COc1ccccc1NC(=O)Nc1ccc(N(C)C)cc1,T/C,[9],90 % of control
same,T/C,[12],118 % of control
same,T/C,[13],90 % of control
